Laboratory results: paper PMC5241826, “An extended N-H bond, driven by a conserved second-order interaction, orients the flavin N5 orbital in cholesterol oxidase” (Scientific Reports, 2017)

Target: T1, cholesterol oxidase (COx; H/D-COx) (Streptomyces sp. SA-COO, UniProt P12676)
T1 construct: gene choA; secreted mature form; H/D-exchanged crystal
Test: joint X-ray/neutron crystal structure, […] A neutron, […] A X-ray
Format: binding
Details: H/D-exchanged crystal (D2O soak), room-temperature neutron data, crystallised at pH 5.2; Gly120 N-H to FAD N5 hydrogen bond

T1 sequence (P12676 43-546): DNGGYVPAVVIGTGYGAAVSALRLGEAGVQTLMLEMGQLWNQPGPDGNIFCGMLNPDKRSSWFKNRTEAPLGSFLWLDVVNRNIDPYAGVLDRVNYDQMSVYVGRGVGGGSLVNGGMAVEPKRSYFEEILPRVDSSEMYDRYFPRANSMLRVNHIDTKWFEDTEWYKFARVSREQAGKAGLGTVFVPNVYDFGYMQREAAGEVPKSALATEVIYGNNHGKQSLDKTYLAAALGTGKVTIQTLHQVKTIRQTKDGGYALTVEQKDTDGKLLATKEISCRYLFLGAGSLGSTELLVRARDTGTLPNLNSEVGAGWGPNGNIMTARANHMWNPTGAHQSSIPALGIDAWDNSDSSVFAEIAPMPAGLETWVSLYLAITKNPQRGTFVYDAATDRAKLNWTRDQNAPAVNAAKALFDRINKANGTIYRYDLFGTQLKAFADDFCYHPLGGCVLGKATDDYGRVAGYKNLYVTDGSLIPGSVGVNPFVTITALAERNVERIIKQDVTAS

SMILES: Cc1cc2nc3c(=O)[nH]c(=O)nc-3n(C[C@H](O)[C@H](O)[C@H](O)COP(=O)(O)OP(=O)(O)OC[C@H]3O[C@@H](n4cnc5c(N)ncnc54)[C@H](O)[C@@H]3O)c2cc1C [FAD]
- joint X-ray/neutron crystal structure, 2.2 A neutron, 1.5 A X-ray: one involved in a conserved hydrogen bond between Gly120-NH and FAD-N5
